Results from patent publication US6399580B1, “Methods and compositions for stimulating tissue growth and epithelial moisturization” (The Regents of the University of California, priority 1994, dated 2002).
Several values for one entry are separate records, joined by “and”; a condition that tells them apart may be missing. Identical values can stand only once.

Assays:
murine epidermis = assay: Epidermal DNA synthesis, [3H]-thymidine incorporation in vivo; parameters: species or system mouse
Description: To assess the effects of a topical β-glucocerebrosidase inhibitor, conduritol-B-epoxide (CBE) in epidermal DNA synthesis two slightly different dosage protocols have been employed. In all cases, mice were treated topically with 20 μl to 40 μl of 250 nmol/μl CBE bid for 2-5 days on the right flank. On the last day, the mice were injected intraperitoneally with ^3H-thymidine (1 μCi/G body weight) diluted 1:10 in 100-200 μl isotonic NaCl. After one hour the mice were sacrificed. Whole skin was excised and subcutaneous fascia and fat were removed by scraped. Skin samples were placed dermis side downward onto 10 mM EDTA in phosphate buffered saline (PBS-CMF; pH 7.4) and incubated at 37° C. for 40 min. The skin was blotted dry with a tissue and epidermis removed by scraping with a surgical blade. The epidermis was minced into small pieces and placed in microcentrifuge vials. Samples were immediately snap frozen and stored in liquid nitrogen until immediately prior to preparation of the epidermal homogenates. 300 μl of 10 mM EDTA in PBS-CMF (pH 7.4) was added to all samples which then underwent tissue homogenization using Polytron (15 sec, ×2 on ice. Polytron tip was rinsed between each homogenization with 400 μl 10 mM EDTA in PBS-CMF. Rinses were combined with same original samples. Samples were sonicated twice for 10 sec on ice. 100 μl of 20% TCA was added and left for 10 min at 4° C. Samples were centrifuged at 2000×g at 4° C. for 5 min. The supernatant was discarded. 500 μl of 5% TCA was added and the samples were centrifuged at 2000×g at 4° C. for 5 min. The supernatant was discarded and this step was repeated again. The precipitate was resuspended in 1ml of 1N NaOH and vortexed. 400 μl or NaOH plus 400 μl of 1N HCl with 8ml Ecolume was used as a background blank. Vials were counted the following day.
We next determined whether the topical administration of structurally similar but less efficient β-glucosidase inhibitors would induce epidermal hyperproliferation. Animals were treated topically twice daily with either Conduritol-B-epoxide, Conduritol B (CB), or deoxynojirimycin (dNJM), each at 40 μl of 250 nmol/μl twice daily, as described in Example 10. After 24 hours, [^3H]-thymidine was injected intraperitoneally and incorporation of thymidine into DNA was determined (FIG. 26 A&B). […] This reduced activity is a result of the relative availability of these inhibitors to in vivo tissues.
Animals were treated as described in Example 10.
We next determined whether occlusion with a vapor-impermeable membrane would enhance the effects of a β-glucocerebrosidase inhibitor on epidermal DNA synthesis. […] After 24 hrs animals were injected with [^3H]-thymidine, and incorporation into DNA was determined (Proksch, et. al., J. Clin. Invest. 87:1668-1673, 1991).

[1] = test system: acetone treated skin sites; assay: Barrier recovery of acetone treated skin sites; assay type: in vivo, mouse; settings: MUX 0.5 or 1.0 %(wt:vol) topical
[2] = test system: cultured human keratinocytes; assay: [3H]-thymidine incorporation and DNA content in cultured human keratinocytes; assay type: cell-based; settings: for DNA content / thymidine incorporation: 24 hours of treatment, Cer 5 or 10 μM, FIG. 9
Description: To determine the ability of exogenous glucosylceramides (GlcCER) to stimulate epidermal proliferation, we applied various concentrations of GlcCER to cultural human keratinocytes (third passage). Keratinocytes were isolated from human neonatal foreskins by a modification of the method of Pittelkow, M. R. and Scott, R. E. ( (1986) Proc. Mayo Clin. 61:771-777) Cells were added to 100 mm plastic Petri dishes at a density of 1 to 2×10^4 cells/cm^2, and grown initially in 10mls of Keratinocyte Growth Medium (KGM) (Clonetics, San Diego, Calif.) with 0.07 mM calcium. The cultures were maintained at 35° C. under 5% CO2 in air, with medium changes performed three times weekly. After the cells reached 70%-80% confluence, they were switched to KGM medium containing 1.2 mM calcium, and harvested at one week post-confluence. GlcCER was added for the last 24 hours of culture and ^3H-thymidine (1 μCi/ml) was added one-to-three hours prior to harvesting of cells for measurement of DNA synthesis and DNA content. (Proksch, E., et al., J. Clin. Invest. 87:1668-1673 (1991).
Using the method described in Example 5, incorporation of [^3H]-thymidine and total DNA content were measured in cultured human keratinocytes (CHK) grown in serum-free keratinocyte growth medium (KGM) supplemented with 0.07 mM .calcium. Cultured cell were further supplemented as indicated, with ceramide (Cer; 5 or 10 μM), glucosylceramide (GlcCER; 1.25 or 2.5 μM), or a combination of ceramide and glucosylceramide (10 and 1.25 μM, respectively).
(§1) CHK cells were grown in serum-free KGM supplemented both with 0.07 mM calcium and 10 μM ceramide (CER). Increasing concentrations of glucosylceramide were added (2.5 to 10 μM), and both [^3H]-thymidine (1 μCi/ml) and [^14C]-leucine (1 μCi/ml) incorporation assays were performed.
CHK cells were grown (as in Example 6)in serum-free KGM (0.07 mM calcium) and supplemented with increasing concentrations of ceramide (CER) alone (dark bars), glucosylceramide (GlcCer) alone (back row), or the combination of ceramide (10 μM) with increasing glucosylceramide (front row). […] Glucosylceramide alone again stimulated thymidine incorporation (>20%) at low concentrations (1.25 and 2.5 μM).
CHK cells were grown (as in Example 6) in serum-free KGM ([…]) supplemented with glucosylceramide (GlcCER) alone, or in combination with the β-glucocerebrosidase-inhibitor, CBE (3 or 10 μM) (FIG. 12). Incorporation of [^3H]-thymidine was measured at 24 hours following supplementation, and values are reported as percent of unsupplemented controls (mean ±S.D.; n>6). […] A low CBE concentration (3 μM) was ineffective.

CHK cells = assay: [14C]-leucine incorporation in CHK cells; assay type: cell-based, human; settings: GlcCER 2.5 and 5.0 μM with 10 μM ceramide; FIG. 10
Description: as §1

[3] = topical 40 μl of 250 nmol/μl twice daily, after 24 hours
[4] = direct application of lipid alone, treated as in Example 10, FIG. 26B
[5] = GlcCER 1.25 μM, 24 hours, NHK cells, n=6±S.E.

## O[C@H]1[C@H](O)[C@@H](O)C=C[C@@H]1O [CB, Conduritol B]
Murine epidermis; [3]
  epidermal DNA synthesis ([3H]-thymidine incorporation): Neither CB or dNJM at this concentration induced an increase in DNA synthesis

## Cc1cc(=O)oc2cc(O[C@@H]3OC[C@@H](O)[C@H](O)[C@H]3O)ccc12 [MUX, 4-methylumbelliferyl xyloside]
[1]
  barrier-disrupting effect: comparable to the two conduritol is compounds (BrCBE and CBE)
[1]; at 2, 4 and 6 hours
  barrier recovery: delayed barrier recovery

## OC[C@H]1NC[C@H](O)[C@@H](O)[C@@H]1O [dNJM, deoxynojirimycin]
Murine epidermis; [3]
  epidermal DNA synthesis ([3H]-thymidine incorporation): Neither CB or dNJM at this concentration induced an increase in DNA synthesis

## ceramide
[2]; GlcCER 1.25 μM
  DNA content: corresponding decrease in DNA content
  thymidine incorporation: inhibited thymidine incorporation
[2]; ceramide alone 10 μM, FIG. 11
  [3H]-thymidine incorporation, of control: 35 % of control
  inhibition of [3H]-thymidine incorporation: approximately 65%
Murine epidermis; [4]
  epidermal DNA synthesis ([3H]-thymidine incorporation): Neither GalCER nor ceramide (CER) alone at this concentration (c.f. structures in FIGS. 4 and 6) induced an increase

## galactosylceramide [GalCER]
Murine epidermis; [4]
  epidermal DNA synthesis ([3H]-thymidine incorporation): Neither GalCER nor ceramide (CER) alone at this concentration (c.f. structures in FIGS. 4 and 6) induced an increase

## glucosylceramide [GlcCER]
[2]; 5 μM
  keratinocyte proliferation, further increase: No further increase
[2]; GlcCER 1.25 μM
  DNA content: increased
  thymidine incorporation: increased
[2]; GlcCER 1.25 μM co-administered with ceramide 10 μM, 24 hours
  thymidine incorporation, increase over ceramide alone: approximately 2 fold
[2]; [5]
  DNA Content (% of Control): 124 ± 2 % of Control and 111 ± 6 % of Control
  ^3H]-Thym. Incorporation (% of control): 118 ± 0.5 % of control and 117 ± 2.0 % of control
[2]; GlcCER 10 μM with 10 μM ceramide
  override of the ceramide effect on thymidine incorporation: did not override the ceramide effect
[2]; GlcCER 2.5 and 5.0 μM with 10 μM ceramide, FIG. 10
  thymidine incorporation relative to ceramide-containing control: stimulated
[2]; cultured human keratinocytes, 24 hours
  concentration of maximum effect on keratinocyte proliferation: 1.25 µM
[2]; glucosylceramide 1.25 μM coadministered with ceramide 10 μM
  inhibitory effect of ceramide on thymidine incorporation: reversed
[2]; glucosylceramide alone, 1.25 and 2.5 μM
  stimulation of thymidine incorporation: > 20%
[2]; higher concentrations of GlcCER (above 1.25 and 2.5 μM)
  proliferation rates: decreased
CHK cells
  leucine incorporation: not altered
Murine epidermis; FIG. 26B
  epidermal DNA synthesis, combination of GlcCER with CBE: additive effect
Murine epidermis; [4]
  epidermal DNA synthesis ([3H]-thymidine incorporation): significant increase
